According to patent publication US20100143332A1, “COMBINATION THERAPY FOR PROLIFERATIVE DISORDERS” (Schering Corporation, priority 2006, published 2010):
Values belong to the molecule of their own block, whether it stands above or below them.

Key:
[1] = tested on: Chk1 S345 phosphorylation in U20S cells; assay: Western blot of Chk1 S345 phosphorylation in cell extracts; type: cell-based, Human; settings: for Chk1 S345 phosphorylation after antimetabolite treatment: 1 mM HU, 5 μM Gem or 5 μM Ara-C for 2 h, FIG. 1
Method: (§1) Cell lines, drugs, and siRNA treatment materials and methods are as follow. Human U20S osteosarcoma cells are grown in DMEM (Mediatech, Herndon, Va.) supplemented with 10% FBS (JRH BioSciences, St. Louis, Mo.), 200 U/ml penicillin, 200 μg/ml streptomycin, and 300 μg/ml L-Glutamine (Cambrex). HU (Sigma, St. Louis, Mo.) is used at 1 mM for 15 hours.
(§2) Cells are transfected with 50 nM siRNA for Chk1, 100 nM siRNA for Luciferase (Luc), PolA, PolE, PolD1, and ATR duplexes using Lipofectamine 2000 (Invitrogen, Carlsbad, Calif.) according to the manufacturer's protocol.
(§3) Western blot analysis of siRNA knockdowns is performed as follows. Cell pellets are trypsinized, washed with PBS, and lysed in 2×SDS sample buffer (Invitrogen, Carlsbad, Calif.). Protein extracts are separated by SDS-polyacrylamide gel electrophoresis and transfer to Immobilon®-P membrane (Millipore, Billarica, Mass.). Antibodies used in this study are obtained from Santa Cruz Biotechnology, Inc. (Santa Cruz, Calif.) (Polα, Polε, Polδ, Rad17), Cell Signaling Technology, Inc. (Danvers, Mass.) (pS345-Chk1, pT68-Chk2), Stressgen Bioreagents Corp. (San Diego, Calif.) (Chk1), and Bethyl Laboratories, Inc. (Montgomery, Tex.) (pS33-RPA 32).
U20S cells were untreated (“-”) or treated with 1 mM HU, 5 μM Gem, or 5 μM Ara-C for 2 h. Cell extracts were prepared and immunoblotted with a phospho-Chk1 S345 antibody to show phosphorylated Chk1 (Chk1 S345) and Chk1 (loading control). […] Liu et al. (2000) Genes Dev. 14:1448; Zhao & Piwnica-Worms (2001) Mol. Cell. Biol. 21:4129; Capasso et al. (2002) J. Cell Sci. 115:4555.
At 48 h after siRNA transfections, extracts were prepared and immunoblotted with the indicated antibodies. HU-treated cells were treated with 1 mM HU for 7 h before harvest.

[2] = tested on: γ-H2A.X phosphorylation in U20S cells; assay: γ-H2A.X phosphorylation by intracellular staining and FACS (marker of double-stranded DNA breaks); type: cell-based, Human
Method: as §1, §2
Flow cytometric analysis, e.g. γ-H2AX detection for DNA damage and BrdU incorporation for cell cycle analysis, is performed as described previously (Cho et al. (2005) Cell Cycle 4:131) and analyzed with a BD LSR II (BD BioSciences, San Jose, Calif.) using FacsDIVA software.

[3] = tested on: RPA32 S33 phosphorylation in U20S cells; assay: Western blot of RPA32 S33 phosphorylation in cell extracts; type: cell-based, Human; settings: 1 mM HU 15 h, cells transfected with luciferase (control) siRNA, FIG. 10
Method: as §1, §2, §3
Cells were tested for Chk1 and RPA32 phosphorylation as a function of depletion of DNA polymerases alone and in combination with depletion of Chk1. […]

[4] = tested on: Chk1 S345 in Polα complexes, U20S cells; assay: Time course of Chk1 S345 accumulation in Polα immunoprecipitates; type: cell-based, Human; settings: HU for 0.5, 1, 2 and 15 h; first time point tested; FIG. 9
Method: Immunoprecipitation is performed as follows. Cell pellets are lysed in LT250 buffer (50 mM Tris-HCl pH 7.4, 250 mM NaCl, 5 mM EDTA, 0.1% NP-40, 10% glycerol, 1 mM DTT, 1:100 dilution of phosphatase inhibitor set I and II, and protease inhibitor cocktail set 111 (Calbiochem, San Diego, Calif.). Protein concentrations are determined using the Bio-Rad Protein Assay (Bio-Rad, Hercules, Calif.). For immunoprecipitation, protein lysates (2 mg) are incubated with anti-Polα (SJK 132-20) antibody cross-linked to ImmunoPure Protein G beads for 4 hours at 4° C. Pab419 monoclonal Ab against SV40 T antigen is typically used as a negative control.
(§4) A time course of HU induction of Chk1 phosphorylation was performed. U20S cells were treated with HU for 0.5, 1, 2 and 15 h, and protein extracts were prepared for immunoprecipitation. Polα was immunoprecipitated with Polα antibodies (SJK132-20) cross-linked to protein G. Western blots were performed using anti-Polα, anti-Chk1, and anti-Chk1 S345 antibodies (FIG. 9). Chk1 phosphorylation was complete at even the earliest timepoint, and both Chk1 and Chk1 S345P co-immunoprecipitated with Polα.

[5] = molecular target: T1, human DNA polymerase alpha (human, UniProt P09884 1-1462); assay: immunoprecipitation with SJK132-20, HU time course, western blot
T1 construct: Endogenous protein in lysates of human U20S osteosarcoma cells; Other subunits of the polymerase alpha complex may have been present in the immune complexes; also called Polα; PolA gene product
T1 sequence: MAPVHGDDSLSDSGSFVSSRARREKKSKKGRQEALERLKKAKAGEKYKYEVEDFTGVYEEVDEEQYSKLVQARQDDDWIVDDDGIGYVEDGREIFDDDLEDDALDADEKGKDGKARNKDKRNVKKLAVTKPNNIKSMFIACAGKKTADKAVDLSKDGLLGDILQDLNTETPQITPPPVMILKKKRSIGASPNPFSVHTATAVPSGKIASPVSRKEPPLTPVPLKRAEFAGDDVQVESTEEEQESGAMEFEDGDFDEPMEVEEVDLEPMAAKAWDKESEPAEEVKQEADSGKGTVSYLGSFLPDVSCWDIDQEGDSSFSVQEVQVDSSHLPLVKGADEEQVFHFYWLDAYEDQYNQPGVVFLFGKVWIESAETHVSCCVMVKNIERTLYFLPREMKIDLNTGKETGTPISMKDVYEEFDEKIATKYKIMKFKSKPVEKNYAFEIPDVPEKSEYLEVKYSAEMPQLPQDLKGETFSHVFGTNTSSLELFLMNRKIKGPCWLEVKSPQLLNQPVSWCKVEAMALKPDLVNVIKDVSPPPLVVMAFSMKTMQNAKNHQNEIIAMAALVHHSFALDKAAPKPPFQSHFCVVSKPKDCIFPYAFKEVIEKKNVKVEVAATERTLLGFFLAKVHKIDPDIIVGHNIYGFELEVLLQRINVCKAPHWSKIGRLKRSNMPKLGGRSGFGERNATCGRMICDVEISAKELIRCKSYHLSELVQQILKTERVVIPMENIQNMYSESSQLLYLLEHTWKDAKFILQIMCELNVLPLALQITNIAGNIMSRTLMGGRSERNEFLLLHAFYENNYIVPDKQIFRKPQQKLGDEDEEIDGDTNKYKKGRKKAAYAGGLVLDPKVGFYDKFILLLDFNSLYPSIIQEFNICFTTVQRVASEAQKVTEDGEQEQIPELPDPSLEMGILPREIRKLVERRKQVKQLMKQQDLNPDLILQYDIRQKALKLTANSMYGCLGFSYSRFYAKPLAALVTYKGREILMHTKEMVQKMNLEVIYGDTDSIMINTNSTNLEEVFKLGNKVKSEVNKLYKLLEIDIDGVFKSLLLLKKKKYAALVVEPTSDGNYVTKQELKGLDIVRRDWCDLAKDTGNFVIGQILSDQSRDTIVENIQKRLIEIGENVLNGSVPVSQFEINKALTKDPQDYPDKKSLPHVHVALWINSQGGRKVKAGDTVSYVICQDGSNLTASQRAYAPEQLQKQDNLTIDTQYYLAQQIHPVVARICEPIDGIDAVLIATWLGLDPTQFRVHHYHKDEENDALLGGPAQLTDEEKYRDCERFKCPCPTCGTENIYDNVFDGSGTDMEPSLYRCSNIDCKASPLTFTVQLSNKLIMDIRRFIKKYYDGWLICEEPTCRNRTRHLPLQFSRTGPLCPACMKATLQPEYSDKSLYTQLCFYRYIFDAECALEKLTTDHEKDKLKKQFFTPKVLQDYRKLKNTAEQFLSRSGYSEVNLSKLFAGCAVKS
Method: as §4

Molecule: Nc1ccn([C@@H]2O[C@H](CO)[C@@H](O)[C@@H]2O)c(=O)n1 [Ara-C, cytarabine]
Chk1 S345 phosphorylation after antimetabolite treatment [1]: induced substantial phosphorylation of Chk1

Molecule: COc1ccc(CNC(=O)c2cccc(-c3cnc(N)c(C(=O)N[C@H]4CCCNC4)n3)c2)cc1 [3-amino-6-{3-[({[4-(methyloxy)phenyl]methyl}amino)carbonyl]phenyl}-N-[(3S)-piperidin-3-yl]pyrazine-2-carboxamide]
percentage of cells exhibiting substantial double-stranded DNA breaks (γ-H2AX) ([2]; Chk1 inhibitor 2.5 μM, 2 hours, combined with siRNA ablation of PolA, controls less than 1%, FIG. 4B): over 50%

Molecule: Nc1ccn([C@@H]2O[C@H](CO)[C@@H](O)C2(F)F)c(=O)n1 [Gem, gemcitabine]
Chk1 S345 phosphorylation after antimetabolite treatment [1]: induced substantial phosphorylation of Chk1

Molecule: NC(=O)NO [HU, hydroxyurea]
H2A.X phosphorylation compared to control samples ([2]; FIG. 4A, average of three experiments): modestly increase
cells exhibiting DNA damage compared with control cultures ([2]; FIGS. 2B and 2C, siRNA 48 h, HU 1 mM with control siRNA): approximately 10 fold
Chk1 S345 phosphorylation in whole cell extracts ([1]; 1 mM HU 15 h, cells transfected with luciferase (control) siRNA, FIG. 10): strong Chk1 S345 phosphorylation
Chk1 S345 phosphorylation after antimetabolite treatment [1]: induced substantial phosphorylation of Chk1
RPA32 phosphorylation in whole cell extracts [3]: low level RPA32 phosphorylation
time at which Chk1 S345 response in Polα complexes was complete [4]: ≤ 0.5 h

binding result [5]: binds
B1: Chk1 S345P (Chk1 phosphorylated at S345) (enzyme)
chain: MAVPFVEDWDLVQTLGEGAYGEVQLAVNRVTEEAVAVKIVDMKRAVDCPENIKKEICINKMLNHENVVKFYGHRREGNIQYLFLEYCSGGELFDRIEPDIGMPEPDAQRFFHQLMAGVVYLHGIGITHRDIKPENLLLDERDNLKISDFGLATVFRYNNRERLLNKMCGTLPYVAPELLKRREFHAEPVDVWSCGIVLTAMLAGELPWDQPSDSCQEYSDWKEKKTYLNPWKKIDSAPLALLHKILVENPSARITIPDIKKDRWYNKPLKKGAKRPRVTSGGVSESPSGFSKHIQSNLDFSPVNSASSEENVKYSSSQPEPRTGLSLWDTSPSYIDKLVQGISFSQPTCPDHMLLNSQLLGTPGSSQNPWQRLVKRMTRFFTKLDADKSYQCLKETCEKLGYQWKKSCMNQVTISTTDRRNNKLIFKVNLLEMDDKILVDFRLSKGDGLEFKRHFLKIKGKLIDIVSSQKVWLPAT
modifications: phosphoserine at 345 (Chk1 S345P)
notes: also called phospho-S345 Chk1; Chk S345P
